Experimental findings from patent US20260166128A1, “HUMAN AMYLIN ANALOG, AND DERIVATIVE THEREOF AND USE THEREOF” (priority 2022, published 2026) are described below.

Numbered stars: 1 amine (or outer) side, 2 acyl side, 3 side chain; on linkers, the order of the positions; unused ones are H or OH. Bridge positions count the residues as written; N and C are the ends. Square brackets hold non-standard residues; d marks the D form. Side chains are listed from the residue outwards. Peptide text beside a SMILES is read from it. * marks the point of attachment. C20 diacid = O=C(O)CCCCCCCCCCCCCCCCCCC(=O)*; C18 diacid = O=C(O)CCCCCCCCCCCCCCCCC(=O)*; γGlu = O=C(O)[C@H](CCC(=O)[*:2])N[*:1]; Hyp = O=C(O)[C@@H]1C[C@@H](O)CN1; AEEA = NCCOCCOCC(=O)O; Aoc = NCCCCCCCC(=O)O

As a reminder, the EC50 is the concentration giving half of the maximal effect.

For this experiment, the target named is T1, human amylin receptor (Homo sapiens, UniProt O60896+P30988).
T1 construct: host or cells: CHO-K1/Ga15/AMY3 cells, further stably transfected with a CRE-luciferase plasmid
T1 sequence (P30988 25-474): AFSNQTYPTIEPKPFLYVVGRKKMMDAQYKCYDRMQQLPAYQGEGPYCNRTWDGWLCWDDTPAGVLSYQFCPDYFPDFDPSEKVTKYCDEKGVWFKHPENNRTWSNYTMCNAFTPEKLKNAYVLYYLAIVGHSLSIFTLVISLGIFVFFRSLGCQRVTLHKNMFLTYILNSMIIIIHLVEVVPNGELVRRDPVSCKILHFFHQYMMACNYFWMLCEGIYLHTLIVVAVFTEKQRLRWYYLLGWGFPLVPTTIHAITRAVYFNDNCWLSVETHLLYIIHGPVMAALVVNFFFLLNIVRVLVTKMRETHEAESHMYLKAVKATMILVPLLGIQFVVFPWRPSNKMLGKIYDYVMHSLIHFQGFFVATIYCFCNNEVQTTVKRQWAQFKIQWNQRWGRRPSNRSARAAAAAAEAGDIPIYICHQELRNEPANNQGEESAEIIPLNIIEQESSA
T1 sequence (O60896 24-148 partner): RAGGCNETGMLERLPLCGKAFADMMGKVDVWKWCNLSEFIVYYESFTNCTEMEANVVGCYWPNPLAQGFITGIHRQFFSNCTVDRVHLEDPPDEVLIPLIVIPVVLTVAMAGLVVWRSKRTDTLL
Kind of experiment: Luciferase assay of amylin derivatives in amylin receptor/CRE-luc CHO cell line. Format: cell-based. The settings on record: CHO-K1/Ga15/AMY3 CRE-luc cells, 24 hours incubation, F12 medium containing 10% FBS; read-out: EC50.
Experimental: The experiment was intended to detect the activity or efficacy of the amylin derivatives on a human amylin receptor in vitro by luciferase assay.
50 μL of growth medium (F12 medium containing 10% FBS) was added into each well of a white 96-well plate, and the stably transfected amylin/CRE-lue CHO cells were inoculated into the white 96-well plate at a density of about 20,000 cells/well for activity determination.
Turning to `CC[C@H](C)[C@H](NC(=O)[C@@H]1CCCN1C(=O)[C@H](Cc1c[nH]cn1)NC(=O)[C@H](CC(C)C)NC(=O)[C@H](CC(N)=O)NC(=O)[C@H](CC(N)=O)NC(=O)[C@H](CO)NC(=O)[C@H](CO)NC(=O)[C@H](Cc1c[nH]cn1)NC(=O)[C@H](CCCNC(=N)N)NC(=O)[C@H](CC(C)C)NC(=O)[C@H](Cc1ccccc1)NC(=O)[C@H](CC(=O)O)NC(=O)[C@H](C)NC(=O)[C@H](CC(C)C)NC(=O)[C@H](CCCNC(=N)N)NC(=O)[C@H](CCC(N)=O)NC(=O)[C@@H](NC(=O)[C@H](C)NC(=O)[C@@H]1CSSC[C@H](NC(=O)[C@H](CCCCN)NC(=O)CC[C@H](NC(=O)CCCCCCCCCCCCCCCCCCC(=O)O)C(=O)O)C(=O)N[C@@H](CC(N)=O)C(=O)N[C@@H]([C@@H](C)O)C(=O)N[C@@H](C)C(=O)N[C@@H]([C@@H](C)O)C(=O)N1)[C@@H](C)O)C(=O)N[C@@H](CC(C)C)C(=O)N1CCC[C@H]1C(=O)N1CCC[C@H]1C(=O)N[C@H](C(=O)N[C@@H](CC(N)=O)C(=O)N[C@H](C(=O)NCC(=O)N[C@@H](CO)C(=O)N[C@@H](CC(N)=O)C(=O)N[C@H](C(=O)N1CCC[C@H]1C(N)=O)[C@@H](C)O)C(C)C)[C@@H](C)O` [PD162] ({C20 diacid-γGlu}-KCNTATCATQRLADFLRHSSNNLHPILPPTNVGSNTP-NH2; disulfide 2-7 (inferred)), the concentration for a half-maximal effect (EC50) came out at 0.035 nM.
Regarding `CC[C@H](C)[C@H](NC(=O)[C@@H]1CCCN1C(=O)[C@H](CCCCNC(=O)COCCOCCNC(=O)COCCOCCNC(=O)CC[C@H](NC(=O)CCCCCCCCCCCCCCCCC(=O)O)C(=O)O)NC(=O)[C@H](CC(C)C)NC(=O)[C@H](CC(N)=O)NC(=O)[C@H](CC(N)=O)NC(=O)[C@H](CO)NC(=O)[C@H](CO)NC(=O)[C@H](Cc1c[nH]cn1)NC(=O)[C@H](CCCNC(=N)N)NC(=O)[C@H](CC(C)C)NC(=O)[C@H](Cc1ccccc1)NC(=O)[C@H](CC(=O)O)NC(=O)[C@H](C)NC(=O)[C@H](CC(C)C)NC(=O)[C@H](CCCNC(=N)N)NC(=O)[C@H](CCC(N)=O)NC(=O)[C@@H](NC(=O)[C@H](C)NC(=O)[C@@H]1CSSC[C@H](NC(=O)[C@@H](N)CCCNC(=N)N)C(=O)N[C@@H](CC(N)=O)C(=O)N[C@@H]([C@@H](C)O)C(=O)N[C@@H](C)C(=O)N[C@@H]([C@@H](C)O)C(=O)N1)[C@@H](C)O)C(=O)N[C@@H](CC(C)C)C(=O)N1CCC[C@H]1C(=O)N1CCC[C@H]1C(=O)N[C@H](C(=O)N[C@@H](CC(N)=O)C(=O)N[C@H](C(=O)NCC(=O)N[C@@H](CO)C(=O)N[C@@H](CC(N)=O)C(=O)N[C@H](C(=O)N1C[C@H](O)C[C@H]1C(N)=O)[C@@H](C)O)C(C)C)[C@@H](C)O` [PD109] (H-RCNTATCATQRLADFLRHSSNNLK([AEEA-AEEA-γGlu-C18 diacid])PILPPTNVGSNT[Hyp]-NH2; disulfide 2-7), the EC50 came to 0.01 nM.
The same measure for `CC[C@H](C)[C@H](NC(=O)[C@@H]1CCCN1C(=O)CNC(=O)[C@H](CCCCNC(=O)COCCOCCNC(=O)CC[C@H](NC(=O)CCCCCCCCCCCCCCCCC(=O)O)C(=O)O)NC(=O)[C@H](CC(N)=O)NC(=O)[C@H](CC(N)=O)NC(=O)[C@H](CO)NC(=O)[C@H](CO)NC(=O)[C@H](Cc1c[nH]cn1)NC(=O)[C@H](CCCNC(=N)N)NC(=O)[C@H](CC(C)C)NC(=O)[C@H](Cc1ccccc1)NC(=O)[C@H](CC(=O)O)NC(=O)[C@H](C)NC(=O)[C@H](CC(C)C)NC(=O)[C@H](CCCNC(=N)N)NC(=O)[C@H](CCC(N)=O)NC(=O)[C@@H](NC(=O)[C@H](C)NC(=O)[C@@H]1CSSC[C@H](NC(=O)[C@@H](N)CCCNC(=N)N)C(=O)N[C@@H](CC(N)=O)C(=O)N[C@@H]([C@@H](C)O)C(=O)N[C@@H](C)C(=O)N[C@@H]([C@@H](C)O)C(=O)N1)[C@@H](C)O)C(=O)N[C@@H](CC(C)C)C(=O)N1CCC[C@H]1C(=O)N1CCC[C@H]1C(=O)N[C@H](C(=O)N[C@@H](CC(N)=O)C(=O)N[C@H](C(=O)NCC(=O)N[C@@H](CO)C(=O)N[C@@H](CC(N)=O)C(=O)N[C@H](C(=O)N1C[C@H](O)C[C@H]1C(N)=O)[C@@H](C)O)C(C)C)[C@@H](C)O` [PD111] (H-RCNTATCATQRLADFLRHSSNNK([AEEA-γGlu-C18 diacid])GPILPPTNVGSNT[Hyp]-NH2; disulfide 2-7): 0.008 nM; for `CC[C@H](C)[C@H](NC(=O)[C@@H]1CCCN1C(=O)[C@H](CCCCN)NC(=O)[C@H](CC(C)C)NC(=O)[C@H](CC(N)=O)NC(=O)[C@H](CC(N)=O)NC(=O)[C@H](CO)NC(=O)[C@H](CO)NC(=O)[C@H](Cc1c[nH]cn1)NC(=O)[C@H](CCCNC(=N)N)NC(=O)[C@H](CC(C)C)NC(=O)[C@H](Cc1ccccc1)NC(=O)[C@H](CC(=O)O)NC(=O)[C@H](C)NC(=O)[C@H](CC(C)C)NC(=O)[C@H](CCCNC(=N)N)NC(=O)[C@H](CCC(N)=O)NC(=O)[C@@H](NC(=O)[C@H](C)NC(=O)[C@@H]1CSSC[C@H](NC(=O)[C@H](CCCCN)NC(=O)CC[C@H](NC(=O)COCCOCCNC(=O)COCCOCCNC(=O)CCCCCCCCCCCCCCCCCCC(=O)O)C(=O)O)C(=O)N[C@@H](CC(N)=O)C(=O)N[C@@H]([C@@H](C)O)C(=O)N[C@@H](C)C(=O)N[C@@H]([C@@H](C)O)C(=O)N1)[C@@H](C)O)C(=O)N[C@@H](CC(C)C)C(=O)N1CCC[C@H]1C(=O)N1CCC[C@H]1C(=O)N[C@H](C(=O)N[C@@H](CC(N)=O)C(=O)N[C@H](C(=O)NCC(=O)N[C@@H](CO)C(=O)N[C@@H](CC(N)=O)C(=O)N[C@H](C(=O)N1C[C@H](O)C[C@H]1C(N)=O)[C@@H](C)O)C(C)C)[C@@H](C)O` [PD176] ({C20 diacid-AEEA-AEEA-γGlu}-KCNTATCATQRLADFLRHSSNNLKPILPPTNVGSNT[Hyp]-NH2; disulfide 2-7): 0.029 nM; for `CC[C@H](C)[C@H](NC(=O)[C@@H]1CCCN1C(=O)CCCCCCCNC(=O)[C@H](CC(C)C)NC(=O)[C@H](CC(N)=O)NC(=O)[C@H](CC(N)=O)NC(=O)[C@H](CO)NC(=O)[C@H](CO)NC(=O)[C@H](Cc1c[nH]cn1)NC(=O)[C@H](CCCNC(=N)N)NC(=O)[C@H](CC(C)C)NC(=O)[C@H](Cc1ccccc1)NC(=O)[C@H](CC(=O)O)NC(=O)[C@H](C)NC(=O)[C@H](CC(C)C)NC(=O)[C@H](CCCNC(=N)N)NC(=O)[C@H](CCC(N)=O)NC(=O)[C@@H](NC(=O)[C@H](C)NC(=O)[C@@H]1CSSC[C@H](NC(=O)[C@H](CCCCN)NC(=O)CC[C@H](NC(=O)CCCCCCCCCCCCCCCCCCC(=O)O)C(=O)O)C(=O)N[C@@H](CC(N)=O)C(=O)N[C@@H]([C@@H](C)O)C(=O)N[C@@H](C)C(=O)N[C@@H]([C@@H](C)O)C(=O)N1)[C@@H](C)O)C(=O)N[C@@H](CC(C)C)C(=O)N1CCC[C@H]1C(=O)N1CCC[C@H]1C(=O)N[C@H](C(=O)N[C@@H](CC(N)=O)C(=O)N[C@H](C(=O)NCC(=O)N[C@@H](CO)C(=O)N[C@@H](CC(N)=O)C(=O)N[C@H](C(=O)N1CCC[C@H]1C(N)=O)[C@@H](C)O)C(C)C)[C@@H](C)O` [PD174] ({C20 diacid-γGlu}-KCNTATCATQRLADFLRHSSNNL[Aoc]PILPPTNVGSNTP-NH2; disulfide 2-7): 0.046 nM.
